Consider one molecule from ChEMBL document CHEMBL5154726, “Identification of triazolopyridine derivatives as a new class of AhR agonists and evaluation of anti-psoriasis effect in a mouse model” (Eur J Med Chem, 2022).

Broadly, the efflux ratio is the permeability from basolateral to apical divided by that in the opposite direction, in the common usage. By AUC(0-t) is commonly meant exposure summed from dosing to a finite time, without extrapolation to infinity. A higher AUC(0-t) goes with more exposure. The term IC50 denotes the concentration that gives 50% inhibition. A word on the Cmax: it is the maximum level reached in the sampled fluid or tissue. As usually defined, the logD is lipophilicity at a set pH, counting ionised and neutral species. In general, Papp refers to a coefficient for how fast a substance crosses the barrier. What is called thermodynamic solubility is solubility found after equilibrating the solid with the medium. The half-life is the time needed for the level to fall by half in the phase considered. Low readings indicate fast loss, high ones slow loss.

Series [1] can be described thus: Efflux ratio of apparent permeability in MDCK cells. The series is classed as ADME, cell-based, Canis lupus familiaris. Particulars: dog.
The nature of series [2]: AUC (0 to t) in Sprague-Dawley rat at 10 mg/kg, po measured up to 24 hrs by LC-MS/MS analysis. The format is ADME, organism-based. Also noted: dose 10 mg/kg, time < 24 hrs, route po. Conditions: in vivo.
Series [3] has as its system Mus musculus. In words: Anti-psoriatic activity in IMQ-induced BALB/c psoriasis mouse model assessed as reduction in erythema at 5 to 20 mg/kg, po by H and E staining based analysis. The series is classed as functional, organism-based. Conditions: dose 5-20 mg/kg.
For series [4], the target named is T1, Nuclear factor erythroid 2-related factor 2 (Homo sapiens) (UniProt Q16236).
T1 sequence (whole entry): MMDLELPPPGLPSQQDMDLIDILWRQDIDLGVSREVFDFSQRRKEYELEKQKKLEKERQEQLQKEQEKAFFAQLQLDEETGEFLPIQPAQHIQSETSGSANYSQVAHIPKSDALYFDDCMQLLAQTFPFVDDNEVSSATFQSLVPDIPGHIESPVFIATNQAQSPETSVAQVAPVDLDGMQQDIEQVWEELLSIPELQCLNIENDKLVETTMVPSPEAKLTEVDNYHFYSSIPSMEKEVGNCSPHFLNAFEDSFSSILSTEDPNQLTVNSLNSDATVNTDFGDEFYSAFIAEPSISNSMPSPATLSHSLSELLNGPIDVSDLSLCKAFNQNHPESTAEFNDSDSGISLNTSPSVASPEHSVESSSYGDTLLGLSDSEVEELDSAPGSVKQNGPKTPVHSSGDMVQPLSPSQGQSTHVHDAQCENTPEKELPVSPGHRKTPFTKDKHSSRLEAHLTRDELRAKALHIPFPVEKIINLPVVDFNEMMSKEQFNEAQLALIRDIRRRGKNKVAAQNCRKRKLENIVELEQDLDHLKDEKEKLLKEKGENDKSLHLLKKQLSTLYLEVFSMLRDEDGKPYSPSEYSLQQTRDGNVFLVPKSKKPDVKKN
In words: Activation of Nrf2 expression in human HaCaT cells up to 10 uM by qRT-PCR analysis. The format is cell-based. Particulars: filed as activator. On the technique in general: Real-time PCR tracks product formation cycle by cycle.

For series [5], the target named is Voltage-gated inwardly rectifying potassium channel KCNH2 (Homo sapiens, UniProt Q12809). In words: Inhibition of hERG channel in HEK293 cells by whole-cell patch clamp assay. The format is toxicity, cell-based.
A short description of series [6]: Cmax in Sprague-Dawley rat at 10 mg/kg, po measured up to 24 hrs by LC-MS/MS analysis. The series is classed as ADME, organism-based. Set-up: time < 24 hrs, dose 10 mg/kg, route po. Conditions: in vivo.
A short description of series [7]: n-Octanol/water partition coefficient, logD of the compound at 1 mg incubated for 48 hrs under shaking condition by LC/MS analysis. The format is physicochemical.
Series [8] deals with Mus musculus. In words: Anti-psoriatic activity in IMQ-induced BALB/c psoriasis mouse model assessed as reduction in scaling at 0.1 to 1 % treated topically by H and E staining based analysis. Conditions: dose 0.1-1 %. The format is functional, organism-based.
Series [9] is described as follows: Apparent permeability in MDCK cells at 50 uM incubated for 90 mins by LC/MS analysis. Conditions: dog. The series is classed as ADME, cell-based, Canis lupus familiaris.
The test system of series [10] is Mus musculus. In words: Anti-psoriatic activity in IMQ-induced BALB/c psoriasis mouse model assessed as reduction in scaling at 5 to 20 mg/kg, po by H and E staining based analysis. The series is classed as functional, organism-based. Conditions: dose 5-20 mg/kg.
A short description of series [11]: Cytotoxicity against HEK293T cells assessed as reduction in cell viability measured after 72 hrs by MTT assay. The series is classed as toxicity, cell-based, HEK-293T. Conditions: human. In general terms: Tetrazolium assays rely on reduction of a dye to a coloured formazan, in cell work by metabolically active cells.
Series [12] in a line: Solubility of the compound incubated for 48 hrs under shaking condition by LC/MS analysis. The format is physicochemical.
The test system of series [13] is Mus musculus. In words: Anti-psoriatic activity in IMQ-induced BALB/c psoriasis mouse model assessed as reduction in IL-17a expression at 5 to 20 mg/kg, po by qRT-PCR analysis. The series is classed as functional, organism-based. Conditions: dose 5-20 mg/kg.
Series [14] is described as follows: Half life in Sprague-Dawley rat at 10 mg/kg, po measured up to 24 hrs by LC-MS/MS analysis. The series is classed as ADME, organism-based. Particulars: in vivo.
In series [15] the test system is Mus musculus. In words: Anti-psoriatic activity in IMQ-induced BALB/c psoriasis mouse model assessed as reduction in IL-17a expression at 0.1 to 1 % treated topically by qRT-PCR analysis. The format is functional, organism-based. Conditions: dose 0.1-1 %.

In brackets after ≈: the same amount, converted by molar mass. Activity calls are given as the source filed them.

Voltage-gated inwardly rectifying potassium channel KCNH2, sequence (Q12809 whole entry): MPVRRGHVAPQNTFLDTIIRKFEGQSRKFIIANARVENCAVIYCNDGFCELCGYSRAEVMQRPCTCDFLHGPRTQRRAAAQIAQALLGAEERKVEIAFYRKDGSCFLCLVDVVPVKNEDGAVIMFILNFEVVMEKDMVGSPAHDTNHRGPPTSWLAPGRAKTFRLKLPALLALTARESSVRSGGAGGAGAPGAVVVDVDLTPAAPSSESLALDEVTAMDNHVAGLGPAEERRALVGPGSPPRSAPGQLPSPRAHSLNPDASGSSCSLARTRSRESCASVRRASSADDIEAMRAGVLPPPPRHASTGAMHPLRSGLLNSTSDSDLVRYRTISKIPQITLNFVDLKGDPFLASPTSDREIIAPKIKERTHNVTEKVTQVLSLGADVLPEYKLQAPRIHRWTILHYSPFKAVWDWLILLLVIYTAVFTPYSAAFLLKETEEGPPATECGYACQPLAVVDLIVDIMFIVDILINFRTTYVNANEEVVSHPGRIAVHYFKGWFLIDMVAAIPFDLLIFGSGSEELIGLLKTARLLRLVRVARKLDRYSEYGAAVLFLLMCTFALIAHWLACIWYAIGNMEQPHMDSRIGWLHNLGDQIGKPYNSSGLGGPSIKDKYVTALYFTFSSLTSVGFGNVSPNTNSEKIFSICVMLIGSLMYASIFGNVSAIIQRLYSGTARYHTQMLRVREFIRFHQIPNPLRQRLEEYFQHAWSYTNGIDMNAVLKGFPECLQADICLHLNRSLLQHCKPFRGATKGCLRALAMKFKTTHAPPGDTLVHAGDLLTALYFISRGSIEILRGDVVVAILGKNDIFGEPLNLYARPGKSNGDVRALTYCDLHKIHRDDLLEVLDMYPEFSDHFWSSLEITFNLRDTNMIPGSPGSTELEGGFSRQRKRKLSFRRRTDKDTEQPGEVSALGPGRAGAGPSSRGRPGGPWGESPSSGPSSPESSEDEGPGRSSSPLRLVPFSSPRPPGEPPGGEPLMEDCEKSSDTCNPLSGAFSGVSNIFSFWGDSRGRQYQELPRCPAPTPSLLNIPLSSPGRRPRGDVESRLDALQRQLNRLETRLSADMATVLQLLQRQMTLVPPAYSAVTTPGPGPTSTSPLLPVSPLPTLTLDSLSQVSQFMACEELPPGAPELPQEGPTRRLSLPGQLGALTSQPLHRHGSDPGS

For `Brc1ccc(-c2nc3ccc(Br)cn3n2)cc1`, in series [1], the efflux ratio came to 2.34. Further, in series [2], the AUC(0-t) at 24 h was determined as 1400 ng·h/mL. The outcome in series [3], in series [4], in [8], in [10], in series [13] and in [15] was Active. The molecule further yielded an IC50 in series [5] greater than 10 µM. Further, the peak level in series [6] (Cmax) was 685 ng/mL. For the same molecule, in series [7], the logD at 48 h amounted to 2.97. Further, the Papp at 1.5 h, 50 µM in [9] stood at 3.49 ×10⁻⁶ cm/s. The concentration for half-maximal inhibition (IC50) at 72 h in series [11] was greater than 300 µM. The molecule further yielded a thermodynamic solubility at 48 h in series [12] of 17.2 µg/mL (≈ 48.6 µM). In [14], this molecule showed a half-life of 6.97 h.
